From patent publication US8519007B2, “Use certain diterpene compounds in the treatment of androgen receptor-associated diseases” (Academia Sinica, priority 2008, dated 2013)

What was measured:
[1] = system: PSA and AR expression in LNCaP cells; experiment: Western blot of PSA and AR expression in DHT-treated LNCaP cells; assay type: cell-based, human; settings: 10 nM DHT, 24 h
Source text: The AR suppressing activity of HDHS was also examined in LNCaP cells, another androgen-dependent PCa cell line. […] Expression of endogenous PSA in treated cells, as a measure of cellular response to androgen, and AR activity were detected by western blot with anti-PSA and anti-AR antibodies. Protein levels (relative to actin; listed below the first two blots) were quantitatively analyzed with Chemigenius (Biolabo). The blots shown in FIG. 2B are representative of three independent experiments.

AR-LBD = target: T1, AR-LBD (Homo sapiens, UniProt P10275); experiment: One-hybrid assay (GBD-AR-LBD) in 22Rv1 cells; assay type: cell-based; settings: 10 nM DHT, 20 h
T1 construct: expressed in transfected cells; host or cells: 22Rv1
T1 sequence (P10275 669-900 limits assumed): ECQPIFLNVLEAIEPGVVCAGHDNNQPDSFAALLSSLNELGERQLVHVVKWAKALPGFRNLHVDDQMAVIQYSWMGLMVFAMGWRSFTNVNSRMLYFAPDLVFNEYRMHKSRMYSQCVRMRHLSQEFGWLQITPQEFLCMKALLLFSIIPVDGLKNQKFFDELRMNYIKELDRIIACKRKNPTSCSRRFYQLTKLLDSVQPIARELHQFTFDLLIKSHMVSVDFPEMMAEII
Experimental: The molecular mechanism whereby HDHS represses AR activity was analyzed by the following experiments. […] The transfected cells were treated with vehicle or various compounds for another 20 h.

[2] = target: T2, AR-LBD interaction with the full-length AR (Homo sapiens, UniProt P10275); experiment: Two-hybrid interaction assay in PC-3 cells; assay type: cell-based; settings: 20 h
T2 construct: expressed in transfected cells; host or cells: PC-3
T2 sequence (P10275 669-900 limits assumed): T1 sequence (P10275 669-900 limits assumed)
Experimental: Second, the AR-LBD interaction with the full-length AR can be detected by a two-hybrid interaction assay in PC-3 cells through transfection of GBD-AR-LBD and AR fused with the VP16 activation domain (AR-VP16). […] The transfected cells were treated with vehicle or various compounds for another 20 h. Luciferase activity was measured using the luciferase reporter gene assay system (Promega, Madison, Wis.) and normalized against respective Renilla luciferase values.

LNCaP cells [3] = experiment: Apoptosis by nucleosome release (cytoplasmic DNA fragmentation); assay type: cell-based, human; settings: 5-10 μM, 24 h
Experimental: (§1) FIGS. 4A-B. HDHS induces apoptosis in AR-dependent PCa cells. A, Apoptosis of cytoplasmic DNA fragmentation in different cell lines treated with vehicle or indicated concentrations of HDHS for 24 h. Difference between the indicated pair of treatments was tested for statistic significance as marked. *, P≦0.05; **, P≦0.01. B, Activation of caspases and PARP in HDHS-induced apoptosis of LNCaP cells.
(§2) In light of the increase of sub-G1 populations by HDHS, apoptosis in treated cells was further analyzed via measurement of nucleosome release in PCa cells. […] 22Rv1 cells with AR expression are ablation-resistant but respond to androgen stimulation; HDHS led to their apoptosis.

PC-3 cells [4] = experiment: as above; assay type: cell-based, human; settings: PC-3, 5-10 μM, 24 h
Experimental: as §1, §2

22Rv1 cells = experiment: as above; assay type: cell-based, human; settings: 22Rv1, 5-10 μM, 24 h
LNCaP cells [5] = experiment: Western blot of G1-associated cyclins, CDKs, CDK inhibitors and Rb phosphorylation; assay type: cell-based, human; settings: 24 h
Source text: (§3) The molecular mechanisms for HDHS-induced G0-G1 cell cycle arrest were further assessed by the expression of the cyclins and CDKs that operate in the G1 phase in PCa cells (Malumbres M et al., Nat Rev Cancer 2001; 1:222-31; Massague J. Nature 2004; 432:298-306).

PC-3 cells [6] = experiment: as above; assay type: cell-based, human; settings: PC-3, compared with LNCaP
Source text: as §3

LNCaP cells [7] = experiment: Morphology of treated cells; settings: 10 to 50 μM, 48 h
Source text: (§4) The long-term effect of HDHS on the malignant growth of AR-dependent (22Rv1, and LNCaP) and AR-independent (PC-3) PCa cells was examined by colony-forming growth assay.

PC-3 cells [8] = experiment: Morphology of treated cells; settings: PC-3, up to 50 μM
Source text: as §4

androgen receptor = target: T3, androgen receptor (Homo sapiens, UniProt P10275); experiment: PSA promoter luciferase reporter assay in 103E cells (AR transcriptional activity)
T3 sequence (P10275 with tags, fused parts or gaps DUP590-628/H875Y): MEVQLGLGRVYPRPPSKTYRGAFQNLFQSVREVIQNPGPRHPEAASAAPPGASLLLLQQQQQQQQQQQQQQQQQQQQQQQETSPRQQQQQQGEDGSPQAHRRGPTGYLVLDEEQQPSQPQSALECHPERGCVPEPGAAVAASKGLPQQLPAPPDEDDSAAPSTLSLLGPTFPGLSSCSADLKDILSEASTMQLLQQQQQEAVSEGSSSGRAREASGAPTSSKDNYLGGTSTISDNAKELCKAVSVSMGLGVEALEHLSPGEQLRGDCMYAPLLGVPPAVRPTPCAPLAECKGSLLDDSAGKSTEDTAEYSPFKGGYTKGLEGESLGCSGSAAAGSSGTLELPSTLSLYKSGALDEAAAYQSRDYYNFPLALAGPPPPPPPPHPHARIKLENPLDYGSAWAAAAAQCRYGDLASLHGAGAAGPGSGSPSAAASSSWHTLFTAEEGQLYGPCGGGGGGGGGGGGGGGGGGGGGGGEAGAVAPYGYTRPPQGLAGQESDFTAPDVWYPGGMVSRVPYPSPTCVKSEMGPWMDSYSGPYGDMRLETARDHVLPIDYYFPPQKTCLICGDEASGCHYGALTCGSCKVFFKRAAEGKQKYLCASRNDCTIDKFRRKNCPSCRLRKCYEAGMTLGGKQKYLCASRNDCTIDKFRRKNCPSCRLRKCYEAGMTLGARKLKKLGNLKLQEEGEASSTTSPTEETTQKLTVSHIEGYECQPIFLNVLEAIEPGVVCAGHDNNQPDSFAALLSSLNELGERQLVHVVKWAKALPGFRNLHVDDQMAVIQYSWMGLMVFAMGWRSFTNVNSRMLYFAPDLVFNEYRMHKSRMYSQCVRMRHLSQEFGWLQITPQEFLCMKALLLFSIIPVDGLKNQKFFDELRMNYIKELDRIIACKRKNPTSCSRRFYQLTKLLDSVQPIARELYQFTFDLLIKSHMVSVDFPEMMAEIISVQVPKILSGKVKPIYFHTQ
Experimental: PC-3 and NIH-3T3 were cultured in DMEM (Hyclone) supplemented with 10% FBS. Cultures were maintained in a humidified incubator at 37° C. in 5% CO2/air.
Cells were treated with various compounds for a period of 20 h and luciferase activity was measured using a luciferase reporter gene assay system (Promega).

CC(C)c1cc2c(cc1O)[C@@]1(C)CCCC(C)(C)C1=C(O)C2=O [Compound 2, 6,12-dihydroxyabieta-5,8,11,13-tetraen-7-one]
AR activation of PSA expression by DHT ([1]; 10 μM): completely abolished
protein levels of AR ([1]; 10 μM): fell to basal level
protein levels of AR ([1]; 2.5 or 5 μM): not significantly altered
effect on DHT-induction of AR-LBD (one-hybrid luciferase) (AR-LBD): inhibited the AR-LBD dose-dependently
effect on DHT-induced two-hybrid interaction [2]: competitively inhibited
apoptosis (nucleosome release) (LNCaP cells [3]): significantly induced
apoptosis (nucleosome release) (PC-3 cells [4]): not in PC-3 cells
apoptosis (nucleosome release) (22Rv1 cells): significantly induced
protein expression of CDK inhibitors p21 and p27 (LNCaP cells [5]; 10 μM): increased
cyclins D1 and E protein (LNCaP cells [5]): concentration-dependent decrease
phosphorylation of Rb (LNCaP cells [5]): markedly decreased
protein levels of CDK4, CDK6, and CDK2 (LNCaP cells [5]): decreased
changes in cyclins, CDKs, p21, p27 and Rb phosphorylation (PC-3 cells [6]): at a lower magnitude than in LNCaP cells
morphology of treated cells (LNCaP cells [7]): cell rounding and surface blebbing
morphology of treated cells (PC-3 cells [8]): only cell rounding
concentration achieving complete inhibition of PSA promoter activity (androgen receptor; 10 nmol/L DHT, 24 h): greater than 10 μM
Inhibitionmax (%) of AR activity (androgen receptor; maximal inhibition at 10 μM): 101 ± 4% (10 μM)
IC50 (androgen receptor; read-out: IC50 for inhibiting DHT-induced PSA-luciferase reporter, cotreated with 10 nmol/L DHT, 24 h): 4.8 µM
